This passage reports IC50 results from patent US20240043427A1 (Gilead Sciences, Inc., priority 2020, published 2024).

As usually defined, the IC50 is the concentration needed to halve the response being measured.

Molecules are shown by their SMILES.

Chain of CD73 (P21589 27-574): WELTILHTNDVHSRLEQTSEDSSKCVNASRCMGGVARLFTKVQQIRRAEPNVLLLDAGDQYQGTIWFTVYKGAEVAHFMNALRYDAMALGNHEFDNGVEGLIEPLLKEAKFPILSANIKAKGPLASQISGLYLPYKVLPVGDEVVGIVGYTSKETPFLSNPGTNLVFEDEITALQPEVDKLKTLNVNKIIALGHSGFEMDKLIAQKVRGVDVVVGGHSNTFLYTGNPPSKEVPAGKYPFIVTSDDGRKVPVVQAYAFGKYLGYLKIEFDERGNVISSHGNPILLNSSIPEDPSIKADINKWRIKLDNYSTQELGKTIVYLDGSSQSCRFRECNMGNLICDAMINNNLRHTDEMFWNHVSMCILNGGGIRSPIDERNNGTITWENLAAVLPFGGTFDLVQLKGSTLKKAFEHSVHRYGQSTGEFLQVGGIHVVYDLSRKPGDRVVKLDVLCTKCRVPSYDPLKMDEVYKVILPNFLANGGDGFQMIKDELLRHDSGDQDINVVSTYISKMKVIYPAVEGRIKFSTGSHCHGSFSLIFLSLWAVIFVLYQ

This experiment has as its target CD73 (Homo sapiens (Human), UniProt P21589). It counts as biochemical. The conditions noted are these: 1 mM NaH2PO4 in enzyme buffer, CD73 0.3 nM, AMP 15 uM.
In the case of `O=c1[nH]cc(-c2cc([C@H]3C[C@@H]3c3ccnc(C(F)(F)F)c3)c3nccn3n2)c(=O)[nH]1` (racemic) [Example 160, 5-(8-((1S,2S)-2-(2-(trifluoromethyl)pyridin-4-yl)cyclopropyl)imidazo[1,2-b]pyridazin-6-yl)pyrimidine-2,4(1H,3H)-dione], half-maximal inhibition (IC50) required 15.4 nM. To `O=c1[nH]cc(-c2cc([C@H]3C[C@@H]3c3ccncc3F)c3nccn3n2)c(=O)[nH]1` (racemic) [Example 161, 5-(8-((1S,2S)-2-(3-fluoropyridin-4-yl)cyclopropyl)imidazo[1,2-b]pyridazin-6-yl)pyrimidine-2,4(1H,3H)-dione] belongs 4.48 nM; to `O=c1[nH]cc(-c2cc([C@H]3C[C@@H]3c3cnc4ccccc4c3)c3nccn3n2)c(=O)[nH]1` (racemic) [Example 163, 5-(8-((1S,2S)-2-(quinolin-3-yl)cyclopropyl)imidazo[1,2-b]pyridazin-6-yl)pyrimidine-2,4(1H,3H)-dione], 2.13 nM. In the case of `O=c1[nH]cc(-c2cc([C@H]3C[C@@H]3c3cncc(F)c3)c3nccn3n2)c(=O)[nH]1` (racemic) [Example 164, 5-(8-((1S,2S)-2-(5-fluoropyridin-3-yl)cyclopropyl)imidazo[1,2-b]pyridazin-6-yl)pyrimidine-2,4(1H,3H)-dione] it was 3.58 nM. To `O=c1[nH]cc(-c2cc([C@H]3C[C@@H]3c3ccc(C(F)(F)F)cc3F)c3nccn3n2)c(=O)[nH]1` (racemic) [Example 165, 5-(8-((1S,2S)-2-(2-fluoro-4-(trifluoromethyl)phenyl)cyclopropyl)imidazo[1,2-b]pyridazin-6-yl)pyrimidine-2,4(1H,3H)-dione] belongs 5.06 nM.

In turn, `O=c1[nH]cc(-c2cc([C@H]3C[C@@H]3c3cccc4ccncc34)c3nccn3n2)c(=O)[nH]1` (racemic) [Example 166, 5-(8-((1S,2S)-2-(isoquinolin-8-yl)cyclopropyl)imidazo[1,2-b]pyridazin-6-yl)pyrimidine-2,4(1H,3H)-dione] displayed an IC50 of 43 nM. To `O=c1[nH]cc(-c2cc([C@H]3C[C@@H]3c3ccnc4ccccc34)c3nccn3n2)c(=O)[nH]1` (racemic) [Example 167, 5-(8-((1S,2S)-2-(quinolin-4-yl)cyclopropyl)imidazo[1,2-b]pyridazin-6-yl)pyrimidine-2,4(1H,3H)-dione] belongs 33 nM. In the case of `O=c1[nH]cc(-c2cc([C@H]3C[C@@H]3c3cccc4cnccc34)c3nccn3n2)c(=O)[nH]1` (racemic) [Example 168, 5-(8-((1S,2S)-2-(isoquinolin-5-yl)cyclopropyl)imidazo[1,2-b]pyridazin-6-yl)pyrimidine-2,4(1H,3H)-dione] it was 72.5 nM; in that of `CCOC(=O)c1cn2nc(-c3c[nH]c(=O)[nH]c3=O)cc([C@H]3C[C@@H]3c3ccc(F)cc3)c2n1` (racemic) [Example 172, ethyl 6-(2,4-dioxo-1,2,3,4-tetrahydropyrimidin-5-yl)-8-((1S,2S)-2-(4-fluorophenyl)cyclopropyl)imidazo[1,2-b]pyridazine-2-carboxylate], 13.9 nM; in that of `O=c1[nH]cc(-c2cc([C@H]3C[C@@H]3c3ccccn3)c3ncc(F)n3n2)c(=O)[nH]1` (racemic) [Example 178, 5-(3-fluoro-8-((1S,2S)-2-(pyridin-2-yl)cyclopropyl)imidazo[1,2-b]pyridazin-6-yl)pyrimidine-2,4(1H,3H)-dione], 2.65 nM. In the case of `O=c1[nH]cc(-c2cc([C@H]3C[C@@H]3c3cncnc3)c3ncc(F)n3n2)c(=O)[nH]1` (racemic) [Example 179, 5-(3-fluoro-8-((1S,2S)-2-(pyrimidin-5-yl)cyclopropyl)imidazo[1,2-b]pyridazin-6-yl)pyrimidine-2,4(1H,3H)-dione] it was 16.7 nM; in that of `O=c1[nH]cc(-c2cc([C@H]3C[C@@H]3c3cccnc3)c3ncc(F)n3n2)c(=O)[nH]1` (racemic) [Example 180, 5-(3-fluoro-8-((1S,2S)-2-(pyridin-3-yl)cyclopropyl)imidazo[1,2-b]pyridazin-6-yl)pyrimidine-2,4(1H,3H)-dione], 2.2 nM; in that of `O=c1[nH]cc(-c2cc([C@H]3C[C@@H]3c3ccncc3)c3ncc(F)n3n2)c(=O)[nH]1` (racemic) [Example 181, 5-(3-fluoro-8-((1S,2S)-2-(pyridin-4-yl)cyclopropyl)imidazo[1,2-b]pyridazin-6-yl)pyrimidine-2,4(1H,3H)-dione], 2.42 nM. Consider `O=c1[nH]cc(-c2cc([C@H]3C[C@@H]3c3ccc(Cl)cc3)c3ncc(F)n3n2)c(=O)[nH]1` (racemic) [Example 182, 5-(8-((1S,2S)-2-(4-chlorophenyl)cyclopropyl)-3-fluoroimidazo[1,2-b]pyridazin-6-yl)pyrimidine-2,4(1H,3H)-dione], for which half-maximal inhibition (IC50) required 1.24 nM. In the case of `O=c1[nH]cc(-c2cc([C@H]3C[C@@H]3c3ccc(C(F)(F)F)cc3)c3ncc(F)n3n2)c(=O)[nH]1` (racemic) [Example 183, 5-(3-fluoro-8-((1S,2S)-2-(4-(trifluoromethyl)phenyl)cyclopropyl)imidazo[1,2-b]pyridazin-6-yl)pyrimidine-2,4(1H,3H)-dione] it was 2.52 nM; in that of `Cn1cc([C@H]2C[C@@H]2c2cc(-c3c[nH]c(=O)[nH]c3=O)nn3ccnc23)ccc1=O` (racemic) [Example 184, 5-(8-((1S,2S)-2-(1-methyl-6-oxo-1,6-dihydropyridin-3-yl)cyclopropyl)imidazo[1,2-b]pyridazin-6-yl)pyrimidine-2,4(1H,3H)-dione], 2.86 nM.

On to `CC1(C)C(=O)N(CC(F)(F)F)c2cc([C@H]3C[C@@H]3c3cc(-c4c[nH]c(=O)[nH]c4=O)nn4c(Cl)cnc34)ccc21` (racemic) [Example 212, 5-[3-chloro-8-[(1S,2S)-2-[3,3-dimethyl-2-oxo-1-(2,2,2-trifluoroethyl)indolin-6-yl]cyclopropyl]imidazo[1,2-b]pyridazin-6-yl]-1H-pyrimidine-2,4-dione], for which half-maximal inhibition (IC50) required 1.24 nM. In the case of `O=c1[nH]cc(-c2cc([C@H]3C[C@@H]3c3ccc4c(F)nn(CC(F)(F)F)c4c3)c3ncc(Cl)n3n2)c(=O)[nH]1` (racemic) [Example 213, 5-[3-chloro-8-[(1S,2S)-2-[3-fluoro-1-(2,2,2-trifluoroethyl)indazol-6-yl]cyclopropyl]imidazo[1,2-b]pyridazin-6-yl]-1H-pyrimidine-2,4-dione] it was 0.92 nM. On to `O=c1[nH]cc(-c2cc([C@H]3C[C@@H]3c3ccc4ncsc4c3)c3nccn3n2)c(=O)[nH]1` (racemic) [Example 276, 5-(8-((1S,2S)-2-(benzo[d]thiazol-6-yl)cyclopropyl)imidazo[1,2-b]pyridazin-6-yl)pyrimidine-2,4(1H,3H)-dione], for which half-maximal inhibition (IC50) required 0.91 nM. In the case of `O=c1[nH]cc(-c2cc([C@H]3C[C@@H]3c3ccc4c(c3)OC(F)(F)O4)c3ncc(F)n3n2)c(=O)[nH]1` (racemic) [Example 278, 5-(8-((1S,2S)-2-(2,2-difluorobenzo[d][1,3]dioxol-5-yl)cyclopropyl)-3-fluoroimidazo[1,2-b]pyridazin-6-yl)pyrimidine-2,4(1H,3H)-dione] it was 3.69 nM. In the case of `O=c1[nH]cc(-c2cc([C@H]3C[C@@H]3c3ccc(OC(F)(F)F)cc3F)c3nccn3n2)c(=O)[nH]1` (racemic) [Example 280, 5-(8-((1S,2S)-2-(2-fluoro-4-(trifluoromethoxy)phenyl)cyclopropyl)imidazo[1,2-b]pyridazin-6-yl)pyrimidine-2,4(1H,3H)-dione] it was 5.97 nM. In the case of `COC(=O)c1ccc([C@H]2C[C@@H]2c2cc(-c3c[nH]c(=O)[nH]c3=O)nn3ccnc23)cc1` (racemic) [Example 281, methyl 4-((1S,2S)-2-(6-(2,4-dioxo-1,2,3,4-tetrahydropyrimidin-5-yl)imidazo[1,2-b]pyridazin-8-yl)cyclopropyl)benzoate] it was 1.54 nM.

In turn, `COC(=O)c1cccc([C@H]2C[C@@H]2c2cc(-c3c[nH]c(=O)[nH]c3=O)nn3ccnc23)c1` (racemic) [Example 282, methyl 3-((1S,2S)-2-(6-(2,4-dioxo-1,2,3,4-tetrahydropyrimidin-5-yl)imidazo[1,2-b]pyridazin-8-yl)cyclopropyl)benzoate] displayed a half-inhibitory concentration (IC50) of 1.81 nM.

Take `NC(=O)c1cccc([C@H]2C[C@@H]2c2cc(-c3c[nH]c(=O)[nH]c3=O)nn3ccnc23)c1` (racemic) [Example 284, 3-((1S,2S)-2-(6-(2,4-dioxo-1,2,3,4-tetrahydropyrimidin-5-yl)imidazo[1,2-b]pyridazin-8-yl)cyclopropyl)benzamide]: the IC50 was 1.07 nM.

`CNC(=O)c1ccc([C@H]2C[C@@H]2c2cc(-c3c[nH]c(=O)[nH]c3=O)nn3ccnc23)cc1` (racemic) [Example 285, 4-((1S,2S)-2-(6-(2,4-dioxo-1,2,3,4-tetrahydropyrimidin-5-yl)imidazo[1,2-b]pyridazin-8-yl)cyclopropyl)-N-methylbenzamide] gave an IC50 of 1.42 nM. The compound `CNC(=O)c1cccc([C@H]2C[C@@H]2c2cc(-c3c[nH]c(=O)[nH]c3=O)nn3ccnc23)c1` (racemic) [Example 286, 3-((1S,2S)-2-(6-(2,4-dioxo-1,2,3,4-tetrahydropyrimidin-5-yl)imidazo[1,2-b]pyridazin-8-yl)cyclopropyl)-N-methylbenzamide] showed an IC50 of 1.19 nM. To `CN(C)C(=O)c1cccc([C@H]2C[C@@H]2c2cc(-c3c[nH]c(=O)[nH]c3=O)nn3ccnc23)c1` (racemic) [Example 287, 3-((1S,2S)-2-(6-(2,4-dioxo-1,2,3,4-tetrahydropyrimidin-5-yl)imidazo[1,2-b]pyridazin-8-yl)cyclopropyl)-N,N-dimethylbenzamide] belongs 3.9 nM. In the case of `CN(C)C(=O)c1ccc([C@H]2C[C@@H]2c2cc(-c3c[nH]c(=O)[nH]c3=O)nn3ccnc23)cc1` (racemic) [Example 288, 4-((1S,2S)-2-(6-(2,4-dioxo-1,2,3,4-tetrahydropyrimidin-5-yl)imidazo[1,2-b]pyridazin-8-yl)cyclopropyl)-N,N-dimethylbenzamide] it was 6.86 nM.
